Results on 3 molecules are retold here after US11254680B2, “Cyclic iminopyrimidine derivatives as kinase inhibitors” (ABM Therapeutics Corporation, priority 2017, dated 2022).

The nature of data set [1]: Mouse Pharmacokinetics Study. Type of data set: in vivo. Particulars: CD-1 mice; for Vd / half-life / clearance / AUC / Cmax / Tmax: mouse, plasma; for Vd / half-life / clearance: IV 2.5 mg/kg; for half-life: 20% Hydroxypropyl-beta-cyclodextrin; for clearance: read-out: Clp. An excerpt: The pharmacokinetic properties of selected compounds were studied CD-1 mice via intravenous and oral administration by using a standard protocol. The test articles were formulated in 20% Hydroxypropyl-beta-cyclodextrin, either as a clear solution or fine suspension.

A short description of data set [2]: Caco-2 Permeability Assay. To be noted: human; for efflux ratio at 120 min: Caco-2; for Papp A→B at 120 min: Caco-2, apical to basolateral; for Papp A→B at 120 min / Papp B→A at 120 min: 1-30 μM; for Papp B→A at 120 min: Caco-2, basolateral to apical. Type of data set: in vitro ADME. As to the method: Caco-2 cells are widely used as an in vitro assay to measure the permeability of a drug compound. The Caco-2 cell line is derived from a human colorectal carcinoma, and when cultured, the cells spontaneously differentiate into monolayers of polarized enterocytes. Caco-2 cells express P-glycoprotein and breast cancer resistance protein, two of the most relevant cell membrane active transporters that affect drug compound's permeability into cells and blood brain barrier.
The cells are seeded on Millipore Millicell plates and form a confluent monolayer over 20 days prior to the experiment. On day 20, the test compound (1-30 μM concentration) is added to the apical side of the membrane and the transport of the compound across the monolayer is monitored over a 120 minutes time period. To study drug efflux, it is also necessary to investigate transport of the compound from the basolateral compartment to the apical compartment.
The permeability coefficient (Papp) is calculated from the following equation: Papp=[(dQ/dt)/C0×A] where dQ/dt is the rate of permeation of the drug across the cells, C0 is the donor compartment concentration at time zero and A is the area of the cell monolayer. C0 is obtained from analysis of the dosing solution at the start experiment.
For orientation: Caco-2 cells form a polarised layer with tight junctions and transporters.

The test system of data set [3] is HT-29 colon cancer cells. Description: Antiproliferation assay in HT-29 cells by CellTiter Glo. Particulars: Homo sapiens, 72 hours or 144 hours. It counts as cell-based.
The test system of data set [4] is A375 melanoma cells. In words: Antiproliferation assay in A375 cell line by CellTiter Glo. It counts as cell-based. To be noted: Homo sapiens, A-375, 72 hours or 144 hours. As to the method:
In vitro anti-proliferation study of test compounds in A375 cell line by CellTiter Glo. The cells were routinely maintained as a monolayer culture in corresponding culture medium, at 37° C. with 5% CO2 in air.
Harvest the exponential growth cells by trypsin-EDTA digestion. Re-suspend the cell pellet in fresh culture medium, and adjust the concentration to needed (the cell density per well was listed in following form). The cell viability is over 98% by Trypan blue staining. Inoculate cells into 96 wells plates according to the plate map (90 μL/well). Incubate the plates at 37° C. and 5% CO2 overnight. The next day, prepare the 10×compound containing medium according to the plate map. Transfer 10 μL of 10×compound containing medium into each well of the assay plates (the final DMSO concentration is 0.5%). Gently mix the medium and incubate at 37° C. and 5% CO2 for another 72 hours or 144 hours.
Prepare the reagent according to the manufacture's instruction. Add 50 μL CellTiter-Glo Reagent in each well. Mix contents for 2 minutes on an orbital shaker to induce cell lysis. Allow the plate to incubate at room temperature for 10 minutes to stabilize luminescent signal. Transfer 100 μL of reaction contents of each well from the clear plates into white walled/white opaque 96-well plates. Record the luminescence on Envision.
Using the luminescence measurements [time zero (T0), control growth (C), and test growth in the presence of drug at the six concentration levels (Ti)], the percentage growth is calculated at each of the drug concentrations levels.
Percentage growth inhibition (GI) is calculated as: GI (%)═[(Ti-T0)/(C-T0)]×100 for concentrations for which Ti>=T0, and GI (%)═[(Ti-T0)/T0]×100 for concentrations for which Ti<T0. Data were analyzed using the XLFit (Excel) tool, fitting to a 4-parameter equation to generate concentration response curves. Concentration of compound that inhibits 50% of control cell growth (GI50) was back-interpolated when y=50% of net growth of DMSO treated control wells using nonlinear regression with the equation: f(x) 205 [fit=(A+((B−A)/(1+((C/x)^))))], where A is the minimum response (Ymin), B is the maximum response (Ymax), C is the inflection point of the curve (Re GI50) and D is the Hill coefficient. Growth inhibition of 50% (GI50) was calculated at the 50% Growth inhibition on the curve. Index values were the sum of Inhibition rate (IR) at each tested compound concentration.
Background: ATP-based viability assays read luminescence as a measure of living cells.

Data set [5] deals with P-glycoprotein (MDR1). In words: MDCK-MDR1 Permeability Assay. To be noted: dog; for efflux ratio at 120 min: MDCK-MDR1, Papp(B-A)/Papp(A-B); for Papp A→B at 120 min: MDCK-MDR1, apical to basolateral; for Papp A→B at 120 min / Papp B→A at 120 min: 1-30 μM; for Papp B→A at 120 min: MDCK-MDR1, basolateral to apical. It counts as in vitro ADME, canine. As to the method: MDCK-MDR1 cells originate from transfection of Madin Darby canine kidney (MDCK) cells with the MDR1 gene, the gene encoding for the efflux protein, P-glycoprotein. This cell line is ideal for identifying substrates of P-gp, with or without an inhibitor. The cells are seeded on a Multiscreen™ plate to form a confluent monolayer over 4 days prior to the experiment. On day 4, the test compound (1-30 μM concentration) is added to the apical side of the membrane and the transport of the compound across the monolayer is monitored over a 120 minutes time period. To study drug efflux, it is also necessary to investigate transport of the compound from the basolateral compartment to the apical compartment and calculate an efflux ratio.
The permeability coefficient (Papp) is calculated from the following equation: Papp=[(dQ/dt)/C0×A] where dQ/dt is the rate of permeation of the drug across the cells, C0 is the donor compartment concentration at time zero and A is the area of the cell monolayer.
An efflux ratio is calculated from the mean apical to basolateral (A-B) Papp data and basolateral to apical (B-A) Papp data. Efflux Ratio=Papp(B−A)/Papp(A−B)

Structures are written as SMILES.

What is called Vd is a proportionality between amount in the body and measured concentration, not a real space. Lower therefore signals little distribution into tissue. By half-life is commonly meant the time needed for the level to fall by half in the phase considered. As a reminder, the AUC is concentration integrated over time. Low values mean less exposure, high ones more exposure. For orientation: Cmax means the peak of the concentration-time curve. One may read the Tmax as the time from dosing to the highest level. The term efflux ratio denotes the permeability from basolateral to apical divided by that in the opposite direction, in the common usage. What is called Papp A→B is the apparent permeability from the apical to the basolateral side of a cell layer. Broadly, the Papp B→A is the apparent permeability from the basolateral to the apical side of a cell layer. One may read the GI50 as the concentration giving 50% growth inhibition. Low readings indicate greater sensitivity of the cells, high ones lower sensitivity of the cells. As to `CCCS(=O)(=O)Nc1cccc(Oc2ccc3c(c2)C2=NCCCN2C=N3)c1Cl` [Compound 21, N-(2-Chloro-3-((3,4-dihydro-2H-pyrimido[1,2-c]quinazolin-10-yl)oxy)phenyl)propane-1-sulfonamide], in data set [1] (PO 25 mg/kg), the F was found to be 113 ± 11.1%, the AUC came to 53800 ± 5210 ng·h/mL, the peak level (Cmax) was 11700 ± 2380 ng/mL and the Tmax was 30 min. In data set [1], the Vd is 0.948 ± 0.166 L/kg, the half-life was 72.6 ± 6 min and the clearance came out at 9.03 ± 1.31 mL/min/kg. Moreover, in data set [2], the efflux ratio at 120 min is 0.36, the Papp A→B at 120 min came out at 52.9 ×10⁻⁶ cm/s and the Papp B→A at 120 min came to 19.2 ×10⁻⁶ cm/s. The molecule also displayed a GI50 in data set [3] of less than 100 nM. The molecule further gave a GI50 in data set [4] of less than 100 nM. Also, in data set [5], the efflux ratio at 120 min is 1.68, the Papp A→B at 120 min worked out at 24.1 ×10⁻⁶ cm/s and the Papp B→A at 120 min amounted to 40.5 ×10⁻⁶ cm/s.

With `CCCS(=O)(=O)Nc1cccc(Oc2ccc3c(c2)C2=NCCN2C=N3)c1Cl` [Compound 6, N-(2-Chloro-3-((2,3-dihydroimidazo[1,2-c]quinazolin-9-yl)oxy)phenyl)propane-1-sulfonamide], in data set [1] (PO 25 mg/kg), the F was found to be 58.9 ± 21.5%, the AUC was determined as 8220 ± 3000 ng·h/mL, the Cmax came to 4220 ± 1350 ng/mL and the Tmax was found to be 15 min. In addition, in data set [1], the Vd came out at 1.22 ± 0.16 L/kg, the half-life was 28 ± 0.72 min and the clearance is 30.3 ± 4.64 mL/min/kg. In data set [2], the efflux ratio at 120 min was found to be 0.31, the Papp A→B at 120 min was 43.5 ×10⁻⁶ cm/s and the Papp B→A at 120 min was found to be 13.5 ×10⁻⁶ cm/s. The molecule also had a GI50 in data set [3] of 100 to 1000 nM. This molecule also yielded a GI50 in data set [4] of less than 100 nM. In addition, in data set [5], the efflux ratio at 120 min worked out at 1.42, the Papp A→B at 120 min came to 26.3 ×10⁻⁶ cm/s and the Papp B→A at 120 min is 37.2 ×10⁻⁶ cm/s.

Take `CCCS(=O)(=O)Nc1cccc(Oc2ccc3c(c2)C2=NCCN2C=N3)c1C#N` [Compound 1, N-(2-Cyano-3-((2,3-dihydroimidazo[1,2-c]quinazolin-9-yl)oxy)phenyl)propane-1-sulfonamide]: in data set [1] (PO 30 mg/kg), the F amounted to 112 ± 14%, the AUC was determined as 207000 ± 25900 ng·h/mL, the Cmax is 37300 ± 6240 ng/mL and the Tmax amounted to 60 min. For the same molecule, in data set [1], the Vd was determined as 0.348 ± 0.037 L/kg, the half-life was 88.2 ± 11.4 min and the clearance was found to be 2.77 ± 0.52 mL/min/kg. In addition, in data set [2], the efflux ratio at 120 min was 2.92, the Papp A→B at 120 min came out at 6.42 ×10⁻⁶ cm/s and the Papp B→A at 120 min stood at 18.7 ×10⁻⁶ cm/s. Also, in data set [3], the GI50 is less than 100 nM. The same molecule yielded a GI50 in data set [4] of less than 100 nM. Further, in data set [5], the efflux ratio at 120 min was 6.53, the apparent permeability from apical to basolateral (Papp A→B) at 120 min turned out to be 3.65 ×10⁻⁶ cm/s and the Papp B→A at 120 min was determined as 23.8 ×10⁻⁶ cm/s.
